Test results: US20250108100A1, “C-TERMINAL FRAGMENT OF APOLIPOPROTEIN E AND APPLICATION THEREOF IN INHIBITING y-SECRETASE ACTIVITY” (SYNPHATEC (SHANGHAI) BIOPHARMACEUTICAL TECHNOLOGY CO., LTD., priority 2022, published 2025)

System: ADAM10, BACE1, PS1 and PS2
Assay: mRNA (qRT-PCR) and protein (Western blot) expression of APP secretases in HEK 293T cells
Assay type: cell-based, human
Settings: qRT-PCR and Western blot, vs GFP control
Procedure: • a) A plasmid expressing the target protein in mammalian cells was constructed, and the protein expression promoter is CAG. • b) The target protein was expressed in HEK 293T cell line. Cells were subcultured one day before transfection, and transfection was performed when the degree of cell adhesion reached 70%-80%. The transfection reagent was lipofectamine2000 (ThermoFisher). • c) 4-6 hours post transfection, the medium were replaced with fresh cell culture medium. • d) 36-48 hours post transfection, the cells were lysed (10% 1M tris-HCl (pH=6.8), 4% SDS, 20% glycerol, 0.01% bromophenol blue), and the protein samples were collected and used for Western blot or stored in a −80° C. freezer. • e) Polyacrylamide gel electrophoresis. Before protein loading, the protein was boiled at 98° C. for 10 min, and then centrifuged at 12000 rpm for 10 min. Electrophoresis: 80V for the upper stacking gel; 120V for the lower separating gel. • f) Protein transfer. […]
Quantitect SYBR-Green qRT-PCR kit from Qiagen was used to quantitatively analyze the relative content of mRNA. qRT-PCR primers were listed in Table 2. […]

ApoE2: human apolipoprotein E2, full-length 299 amino acid residues, SEQ ID NO: 12
mRNA and protein expression of ADAM10, BACE1, PS1 and PS2: not altered
